Measured values as given in US12644100B2, “Methods for treating metabolic disorders by targeting ADCY5” (THE BROAD INSTITUTE, INC., priority 2019, dated 2026).

System: primary differentiating osteoblasts
Assay: Osteoblast differentiation assay (ALP activity) in primary differentiating osteoblasts treated with etomoxir
Format: cell-based, human
Conditions: 100 μM etomoxir between day 2 and day 5 of differentiation
Method: FIG. 9A-9E—3q21.1 haplotype affects lipid oxidation in adipocytes and osteoblasts. (9A) Osteoblast alkaline phosphatase (ALP) activity in primary differentiating osteoblasts treated with 100 μM etomoxir (carnitine palmitoyltransferase 1 antagonist) or negative control. Assays were performed in cells from 18 heterozygous individuals (haplotypes 1/2) and 23 homozygous individuals (haplotypes 1/1) and differentiating osteoblasts were treated between day 2 and day 5 of differentiation. (9B) Oxidation of [14C]palmitate (0.5 mM) to 14CO2 in primary differentiating osteoblasts treated with 100 μM etomoxir (carnitine palmitoyltransferase 1 antagonist) or negative control. […] Seahorse XF24 Flux analyzer was performed at each time point and contribution of ATP generation was calculated from glycolysis vs. oxidative phosphorylation. […] Isogenic lines were differentiated to osteoblasts after undergoing clonal expansion, and marker gene expression for osteoblast differentiation was measured by qPCR. […] Isogenic lines were differentiated to adipocytes after undergoing clonal expansion, and catecholamine-stimulated lipolysis was measured. […]
Culture and differentiation of primary human AMSCs. […] Additionally, small quantities of the original liposuction material would be aliquoted into T-25 flasks at a 1:1 ratio of fat to medium as controls to check for contamination. […]

CCOC(=O)[C@@]1(CCCCCCOc2ccc(Cl)cc2)CO1 [etomoxir]
osteoblast differentiation (ALP activity) (haplotype 1 homozygotes (n=23), p-value=0.005): dramatic reduction in osteoblast differentiation | osteoblast differentiation (ALP activity) (heterozygotes haplotypes 1/2 (n=18)): no effect
